Positions of bridges follow the written chain, without caps; N, C: chain ends. Chains are numbered I, II in the order given. No end group written: not given here.
Assay: Heparin-affinity chromatography (heparin binding)
Conditions: heparin-sepharose; eluted in high-affinity fraction 0.7M to 2.0M NaCl
Description: The eluted proteins are then contacted with a heparin affinity resin. The ordinarily skilled artisan will readily realize that this step is best achieved in a column chromatography mode. Heparin affinity columns are commercially available from some of the same vendors mentioned above. In this step, the molecules of interest, both MPF-4 or CPF-4, bind to the heparin column and are eluted using an increasing linear salt gradient. The preferred salt is NaCl, and the portion of the gradient that is preferably collected is the 0.1-2.0M portion. The more highly preferred portion of the gradient to collect is the 0.7-2.0M portion.
The C4-pool was further fractionated by heparin affinity chromatography on a Econo-pac™ 5 ml heparin-sepharose cartridge (BioRad, Richmond, Calif. 94804). The bound proteins were eluted by a linear gradient of 0 to 2.0M NaCl in phosphate buffer saline (PBS) at a flow rate of 2.0 ml/min. The proteins that eluted from the column were pooled into three fractions: (1) non-heparin binding (flow through), (2) low-affinity heparin binding (0 to 0.7M NaCl), and (3) high-affinity heparin binding (0.7M to 2.0M NaCl) fractions.
The high affinity heparin binding fraction (3) (0.7M to 2.0M NaCl) was applied to a Vydac™ 0.46×10 cm C-4 HPLC column (The Marshall Co.; Worthington, Ohio 43085), previously equilibrated with 27% acetonitrile, 0.1% TFA. […]

MPF-4: Naturally-occurring 54 amino acid protein (SEQ ID NO:1), homologous with the 54 C-terminal residues of PF-4, beginning with Ser-17 (SQVRPRHITSLEVIKAGPHCPTAQLIATLKNGRKICLDLQAPLYKKIIKKLLES)
heparin binding: bind heparin

B1: CPF-4: Proteolytically cleaved, non-reduced PF-4: 16 amino acid chain (SEQ ID NO:2) disulfide bonded to the 54 amino acid chain of MPF-4 (protein)
chain 1: EAEEDGDLQCLCVKTT
chain 2: SQVRPRHITSLEVIKAGPHCPTAQLIATLKNGRKICLDLQAPLYKKIIKKLLES
modifications: disulfide I:10-II:20, I:12-II:36; not fully specified
heparin binding: bind heparin

From patent US5935928A, “Modified platelet factor-4” (Eli Lilly and Company, priority 1996, dated 1999)
